ChEMBL document CHEMBL4342475, “Structure-Bioactivity Relationships of Lapatinib Derived Analogs against Schistosoma mansoni” (ACS Med Chem Lett, 2020)
≈ marks a conversion by molar mass, not a printed value. Calls of active or inactive are those of the source. No cut-off for these calls is given here.

Experiments:
Schistosoma mansoni [1] = assay: Antiparasitic activity against Schistosoma mansoni infected in Hamster assessed as severity score at 10 uM incubated for 1 hr; format: functional, organism-based
Schistosoma mansoni [2] = assay: Antiparasitic activity against Schistosoma mansoni infected in Hamster assessed as severity score at 10 uM incubated for 5 hrs; format: functional, organism-based
Schistosoma mansoni [3] = assay: Antiparasitic activity against Schistosoma mansoni infected in Hamster assessed as severity score at 10 uM incubated for 48 hrs; format: functional, organism-based
Schistosoma mansoni [4] = assay: Antiparasitic activity against Schistosoma mansoni infected in Hamster assessed as severity score at 10 uM incubated for 24 hrs; format: functional, organism-based
[5] = Cytotoxicity against human HepG2 cells assessed as reduction in cell viability 48 hrs by MTT assay; format: cell-based; conditions: read-out: TC50
[6] = Aqueous solubility of compound incubated for 24 hrs by LC-MS/MS analysis; format: physicochemical; conditions: for solubility: buffer, 24 h
[7] = Protein binding in human plasma at 1 uM by LC-MS/MS analysis; format: ADME, cell-free
[8] = Metabolic stability in human liver microsomes assessed as intrinsic clearance by LC-MS/MS analysis; format: ADME, Microsome

solubility [6] [µM]	PPB [7] [%]	intrinsic clearance [8] [µL/min/mg]	solubility at 24 h ([6]; aqueous) [µM]	Structure (SMILES)	Activity (Schistosoma mansoni [1])	Activity (Schistosoma mansoni [2])	Activity (Schistosoma mansoni [3])	Activity (Schistosoma mansoni [4])	CC50 at 48 h [5] [µM]
				COC(=O)C1CCCN1c1ncc(-c2ccc3c(Nc4cnccn4)ccnc3c2)cn1 (stereo not drawn)	inactive	inactive	Active		
				CCN1CCCN(c2ncc(-c3ccc4c(Nc5cnccn5)ccnc4c3)cn2)CC1	inactive	inactive	inactive	inactive	> 36
465 (≈ 192 µg/mL)	76	41		Cc1c(-c2cnc(N3CCCNCC3)nc2)ccc2c(Nc3cnccn3)ccnc12	inactive	inactive	Active	Active	> 3.7
				COc1ccc(NC(=O)c2ccc(-c3cccc(N4CCOCC4)c3)cc2O)cc1Cl		inactive	Active		35
				CN1CCCN(c2ncc(-c3ccc4c(c3)ncc3c5ccccc5[nH]c43)cn2)CC1	inactive	inactive	Active	inactive	7.4
				CN1CCN(c2ncc(-c3ccc4c(NCC5CCOCC5)ccnc4c3)cn2)CC1	inactive	inactive	inactive	inactive	
				CN1CCCN(c2ncc(-c3ccc4c(Nc5cnccn5)ccnc4c3)cn2)CC1	inactive	inactive	inactive	inactive	
				COc1ccc(Nc2ccnc3cc(-c4cnc(N5CCCN(C)CC5)nc4)ccc23)cc1Cl	inactive	inactive	Active	Active	6.8
				CN1CCN(c2ncc(-c3ccc4c(NC5CCC(N(C)C)CC5)ccnc4c3)cn2)CC1 (stereo not drawn)	inactive	inactive	inactive	inactive	
				COc1ccc(NC(=O)c2ccc(-c3cccc(N4CCOCC4)c3)cc2N)cc1Cl	inactive	inactive	inactive	inactive	35
				COc1ccc(NC(=O)c2ccc(-c3ccc(S(=O)(=O)N4CCN(C)CC4)cc3)cc2O)cc1Cl	inactive	inactive		inactive	> 29
450 (≈ 205 µg/mL)	94	300		CCCN1CCCN(c2ncc(-c3ccc4c(Nc5cnccn5)ccnc4c3C)cn2)CC1	inactive	inactive	Active	Active	12
				CCCN1CCCN(c2ncc(-c3ccc4c(Nc5cnccn5)ccnc4c3)cn2)CC1	inactive	inactive	inactive	inactive	17
				CN1CCCN(S(=O)(=O)c2ccc(-c3ccc4c(Nc5ccc(Cl)cn5)ccnc4c3)cc2)CC1	inactive	inactive	inactive	inactive	1.8
				COc1ccc(NC(=O)c2ccc(-c3cnc(N4CCCN(C)CC4)nc3)cc2O)cc1Cl	inactive	inactive	Active	inactive	
580 (≈ 256 µg/mL)	88	160		CCN1CCCN(c2ncc(-c3ccc4c(Nc5cnccn5)ccnc4c3C)cn2)CC1	inactive	inactive	inactive	inactive	16
				COc1ccc(NC(=O)c2ccc(-c3cnc(N4CCN(C)CC4)nc3)cc2O)cc1Cl	inactive	inactive		inactive	27
				Cc1cnc(Nc2ccnc3cc(-c4cnc(N5CCN(C)CC5)nc4)ccc23)cn1	inactive	Active	Active	Active	16
480 (≈ 218 µg/mL)	88	300		CCCN1CCCN(c2ncc(-c3cc4nccc(Nc5cnccn5)c4cc3C)cn2)CC1		inactive	inactive		7.6
				CN1CCN(c2ncc(-c3ccc4c(NC5CCOCC5)ccnc4c3)cn2)CC1	inactive	inactive	inactive	inactive	
				CCCN1CCN(c2ncc(-c3ccc4c(Nc5cnccn5)ccnc4c3)cn2)CC1	inactive	inactive	Active	inactive	

solubility [6] [µM]	PPB [7] [%]	intrinsic clearance [8] [µL/min/mg]	solubility at 24 h ([6]; aqueous) [µM]	Structure (SMILES)	Activity (Schistosoma mansoni [1])	Activity (Schistosoma mansoni [2])	Activity (Schistosoma mansoni [3])	Activity (Schistosoma mansoni [4])	CC50 at 48 h [5] [µM]
				CN(CCNc1ncc(-c2ccc3c(Nc4cnccn4)ccnc3c2)cn1)C(=O)OC(C)(C)C	inactive	inactive	Active	inactive	
		130	[…]	Cc1cc2c(Nc3cnccn3)ccnc2cc1-c1cnc(N2CCN(C)CC2)nc1	inactive		Active	Active	
				CN1CCN(c2ncc(-c3ccc4c(NCCN5CCCC5)ccnc4c3)cn2)CC1	inactive	inactive	inactive	inactive	
				CN1CCN(c2ncc(-c3ccc4c(Nc5cnccn5)ccnc4c3)cn2)CC1	inactive	inactive	inactive	inactive	
				CN1CCCN(c2ncc(-c3ccc4c(Nc5ccncn5)ccnc4c3)cn2)CC1	inactive	inactive	inactive	inactive	> 37
				O=C(O)CN1CCN(c2ncc(-c3ccc4c(Nc5cnccn5)ccnc4c3)cn2)CC1	inactive	inactive	inactive	inactive	> 30
				CN1CCN(c2ncc(-c3ccc4c(N[C@@H]5CCCC[C@H]5O)ccnc4c3)cn2)CC1	inactive	inactive	inactive	inactive	
860 (≈ 367 µg/mL)	82	120		Cc1c(-c2cnc(N3CCCN(C)CC3)nc2)ccc2c(Nc3cnccn3)ccnc12	inactive	inactive	inactive	inactive	
1000 (≈ 413 µg/mL)	70	13		Cc1cc2c(Nc3cnccn3)ccnc2cc1-c1cnc(N2CCCNCC2)nc1	inactive	inactive	inactive	inactive	13
				CN1C[C@H]2C[C@@H]1CN2c1ncc(-c2ccc3c(Nc4cnccn4)ccnc3c2)cn1	inactive	inactive	inactive	inactive	
				CCN1CCN(c2ncc(-c3ccc4c(Nc5cnccn5)ccnc4c3)cn2)CC1	inactive	inactive	inactive	inactive	
790 (≈ 348 µg/mL)	84	300		CCN1CCCN(c2ncc(-c3cc4nccc(Nc5cnccn5)c4cc3C)cn2)CC1		Active	Active	Active	4.7
				c1cnc(Nc2ccnc3cc(-c4cnc(N5CCCNCC5)nc4)ccc23)cn1	inactive	inactive	inactive	inactive	25
				COc1ccc(Nc2ccnc3cc(-c4ccc(S(=O)(=O)N5CCCN(C)CC5)cc4)ccc23)cc1Cl	inactive	inactive	inactive	inactive	11
				Cc1ccc2[nH]c3c4ccc(-c5cnc(N6CCCN(C)CC6)nc5)cc4ncc3c2c1		Active	Active	Active	4.7
				c1cc(-c2ccc3c(c2)ncc2c4ccccc4[nH]c32)cc(N2CCOCC2)c1	inactive	inactive	inactive	inactive	40
				Cc1cnc(Nc2ccnc3cc(-c4cnc(N5CCCN(C)CC5)nc4)ccc23)cn1	inactive	inactive	Active		
				Cc1c(-c2cnc(N3CCN(C)CC3)nc2)ccc2c(Nc3cnccn3)ccnc12	inactive	inactive	inactive	inactive	
				O=C(O)C1CCCN1c1ncc(-c2ccc3c(Nc4cnccn4)ccnc3c2)cn1 (stereo not drawn)	inactive	inactive	inactive	inactive	
				CC(C)(C)OC(=O)N1CCN(c2ncc(-c3ccc4c(Nc5cnccn5)ccnc4c3)cn2)CC1	inactive	inactive	inactive	inactive	
